Test results published in patent publication US20100022475A1, “NOVEL TRIAZOLOPYRIMIDINE DERIVATIVES” (priority 2004, published 2010).

Key:
Alternaria solani = Alternaria solani / tomato / preventive; format: in vivo; details: 200 ppm, spray, tomato plants cv. Roter Gnom, assessed 4 days after inoculation
Botrytis cinerea = Botrytis cinerea / tomato / preventive; format: in vivo; details: 200 ppm, spray, tomato plants cv. Roter Gnom, assessed 3 days after inoculation
Puccinia recondita = Puccinia recondita / wheat / preventive (brown rust); format: in vivo; details: 200 ppm, spray, wheat plants cv. Arina, assessed 11 days after inoculation
[1] = tested on: Magnaporthe grisea (Pyricularia oryzae); format: in vivo; details: 200 ppm, spray, rice plants cv. Koshihikari, preventive, assessed 6 days after inoculation
[2] = tested on: Pyrenophora teres (Helminthosporium teres); assay: Pyrenophora teres (Helminthosporium teres) / barley / preventive (net blotch); format: in vivo; details: 200 ppm, spray, barley plants cv. Regina, assessed 4 days after inoculation
Septoria tritici = Septoria tritici / wheat / preventive (Septoria leaf spot); format: in vivo; details: 200 ppm, spray, wheat plants cv. Riband, assessed 16-18 days after inoculation

Row | Structure (SMILES) | melting point | inhibits fungal infestation (Alternaria solani) | inhibits fungal infestation (Botrytis cinerea) | inhibits fungal infestation (Puccinia recondita) | inhibits fungal infestation [1] | inhibits fungal infestation [2] | inhibits fungal infestation (Septoria tritici)
1 | C[Si]1(CNc2c(-c3c(F)cc(F)cc3F)c(Cl)nc3ncnn23)CCCCC1 [I.o.081, [5-chloro-6-(2,4,6-trifluoro-phenyl)-[1,2,4]triazolo[1,5-a]pyrimidin-7-yl]-(1-methyl-silinan-1-ylmethyl)-amine] | 150 to 152 °C |  |  |  |  |  | 
2 | C[Si]1(CNc2c(-c3c(F)cc(F)cc3F)c(Cl)nc3ncnn23)CCCC1 [I.d.081, [5-chloro-6-(2,4,6-trifluoro-phenyl)-[1,2,4]triazolo[1,5-a]pyrimidin-7-yl]-(1-methyl-silolan-1-ylmethyl)-amine] | 138 to 139 °C | ≥ 80% | ≥ 80% | ≥ 80% | ≥ 80% | ≥ 80% | ≥ 80%
